The supplement of paper PMC10307832

Legend:
Assay in all cases: relative viability (nuclei count vs DMSO), 5 days (fraction); higher = more cells survive
[1] = compound: COc1cc2/c(=N/c3ccc(Br)cc3F)nc[nH]c2cc1OCC1CCN(C)CC1 [Vandetanib] + CS(=O)(=O)N1CCN(Cc2cc3nc(-c4cccc5[nH]ncc45)nc(N4CCOCC4)c3s2)CC1 [Pictilisib] (partner 1 µM)
Outline: (§1)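 Values are medians from duplicate plates. Each reflects relative viability, defined as the nuclei count of treated wells over that of vehicle wells. Lung cancer cell lines in 1536-well plates were pin-tool dosed one day after seeding with one drug alone or with a fixed anchor-drug dose plus five library-drug doses (not always all listed) in √10 steps, then fixed, stained and imaged at 4× after 5 days.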

[2] = compound: C#Cc1cccc(Nc2ncnc3cc(OC)c(OCCCCCCC(=O)NO)cc23)c1 [CUDC-101] + C[C@@H](Oc1cc(-c2cnn(C3CCNCC3)c2)cnc1N)c1c(Cl)ccc(F)c1Cl [Crizotinib] (partner 1 µM)
Outline: as §1

[3] = compound: C#Cc1cccc(Nc2ncnc3cc(OC)c(OCCCCCCC(=O)NO)cc23)c1 [CUDC-101] + Cc1nc(Nc2ncc(C(=O)Nc3c(C)cccc3Cl)s2)cc(N2CCN(CCO)CC2)n1 [Dasatinib] (partner 0.075 µM)
Outline: as §1

[4] = compound: C#Cc1cccc(Nc2ncnc3cc(OC)c(OCCCCCCC(=O)NO)cc23)c1 [CUDC-101] + Cc1nc(NC(=O)N2CCC[C@H]2C(N)=O)sc1-c1ccnc(C(C)(C)C(F)(F)F)c1 [Alpelisib] (partner 2 µM)
Outline: as §1

Cell Line	relative viability ([1]; first compound 0.02 µM)	relative viability ([1]; first compound 0.06325 µM)	relative viability ([1]; first compound 0.2 µM)	relative viability ([1]; first compound 0.6325 µM)	relative viability ([1]; first compound 2 µM)	relative viability ([2]; first compound 0.01 µM)	relative viability ([2]; first compound 0.03162 µM)	relative viability ([2]; first compound 0.1 µM)	relative viability ([2]; first compound 0.3162 µM)	relative viability ([2]; first compound 1 µM)	relative viability ([3]; first compound 0.01 µM)	relative viability ([3]; first compound 0.03162 µM)	relative viability ([3]; first compound 0.1 µM)	relative viability ([3]; first compound 0.3162 µM)	relative viability ([3]; first compound 1 µM)	relative viability ([4]; first compound 0.01 µM)	relative viability ([4]; first compound 0.03162 µM)	relative viability ([4]; first compound 0.1 µM)	relative viability ([4]; first compound 0.3162 µM)	relative viability ([4]; first compound 1 µM)
HCC-78	0.192	0.294	0.234	0.231	0.189	0.365	0.298	0.354	0.301	0.103	0.401	0.293	0.373	0.28	0.213	0.288	0.282	0.452	0.256	0.146
HCC-366	0.146	0.141	0.202	0.112	0.112	0.531	0.535	0.557	0.5	0.372	0.631	0.632	0.6	0.715	0.526	0.555	0.197	0.437	0.547	0.337
HCC-827	0.816	1.02	0.864	0.664	0.355	0.966	0.501	0.298	0.218	0.174	0.317	0.154	0.116	0.135	0.13	0.958	0.27	0.224	0.187	0.179
HOP-62	0.608	0.504	0.669	0.495	0.734	0.95	0.753	1.03	0.925	0.666	0.678	0.656	0.692	0.631	0.438	0.777	0.792	1.11	1.05	0.741
LC-2-ad	0.503	0.4	0.167	0.324	0.19	0.454	0.482	0.432	0.436	0.343	0.737	0.879	0.638	0.69	0.298	0.896	0.908	0.844	0.73	0.433
LCLC-97TM1	0.282	0.2	0.206	0.171	0.188	0.549	0.386	0.443	0.343	0.17	0.821	0.804	0.864	0.855	0.596	0.261	0.266	0.235	0.233	0.15
LCLC-103H	0.565	0.518	0.563	0.528	0.472	0.891	0.916	1.08	1.08	0.957	0.524	0.384	0.451	0.478	0.46	0.93	0.95	1.01	1.02	0.953
LK-2	0.585	0.652	0.531	0.559	0.478	0.249	0.229	0.21	0.246	0.225	0.298	0.389	0.25	0.284	0.157	1.08	0.959	1.09	1.05	0.647
